Assay: gradient 5% acetonitrile 3 min, to 50% in 2 min, to 85% in 15 min, held 3 min, 100 µL/min
Settings: column: Zorbax Extend-C18 2.1 x 50 mm; eluents: water / acetonitrile, 0.1% formic acid
Method in brief: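 Mixtures of ~100 pure standards were chromatographed on a Zorbax Extend-C18 column (2.1 × 50 mm, 1.8 μm) at 100 μL/min using water and acetonitrile, each with 0.1% formic acid. Detection used a quadrupole time-of-flight mass spectrometer in positive and negative ionization mode, and data collection spanned 3 months. Retention time was obtained from adduct peaks picked computationally and each checked manually.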

Row | Structure (SMILES) | RP-LC retention time [s]
1 | O=C(c1ccc(OCC2CCN(C(=O)C3CCC3)CC2)cc1)N1CCCC1 | 782
2 | CCCN1C(=O)C(NC(=O)c2ccccc2OC)(C(F)(F)F)C(C(=O)OC)=C1C (configuration not stated) | 935
3 | CCN1CCN(CCNC(=O)c2cc(=O)n3c(nc4ccccc43)s2)CC1 | 604
4 | COCCN1C(=O)c2ccccc2C(C(=O)Nc2cccnc2)C1c1cccs1 (configuration not stated) | 581
5 | CCc1noc(C2(NC(=O)c3ccc(Cl)cc3)CCCCC2)n1 | 1010
6 | O=C(CSc1nc(N2CCc3ccccc3C2)nc2ccccc12)NC1CCCCC1 | 728
7 | CCN1C(=O)CCc2cc(NC(=O)c3cncc(Br)c3)ccc21 | 739
8 | CCN(CC)CCNC(=O)Cn1ncc2c3ccccc3n(Cc3ccccc3)c2c1=O | 605
9 | O=C(Nc1cccnc1)C1CCN(S(=O)(=O)c2cc(-c3noc(C4CCC4)n3)cs2)CC1 | 762
10 | Cc1cc(Cl)ccc1S(=O)(=O)N1CCc2nn(C)c(=O)n2CC1 | 756
11 | Cc1ccc(CNC(=O)C2CCN(S(=O)(=O)c3cc(C(=O)N(C)C)cs3)CC2)cc1 | 762
12 | CCc1nc2ccc(-c3noc(-c4cccc(C#N)c4)n3)cc2n1CC | 710
13 | CCn1cc(CN2CC(Oc3ccc(-c4noc(-c5cccnc5)n4)cc3)C2)cn1 | 635
14 | Clc1ccccc1-c1nnc2sc(-c3ccc4ccccc4n3)nn12 | 1150
15 | O=C(Nc1ncnc2sccc12)C1COc2ccccc2O1 (configuration not stated) | 718
16 | O=C(NCC1CCN(C(=O)Oc2ccccc2)CC1)C1c2ccccc2Oc2ccccc21 | 949
17 | CCCS(=O)(=O)c1nc2ccc(NS(=O)(=O)c3cc(OC)ccc3OC)cc2s1 | 909
18 | O=C(NCc1ccc2c(c1)OCO2)c1nn(-c2ccccc2)c2ccccc2c1=O | 831
19 | Cc1ccn(CC(C)NC(=O)c2cn3ccccc3n2)n1 (configuration not stated) | 583
20 | CC(C)(C)OC(=O)Nc1cnc(C(=O)O)cn1 | 625
21 | CCCN1CCN(C(=O)c2ccc(CN3CCN(Cc4ccccc4)C(=O)C3=O)cc2)CC1 | 811
22 | CC(C)(NC(=O)c1cc(Cl)c2ccccc2c1O)C(=O)O | 1010
23 | NS(=O)(=O)c1ccc(CCNS(=O)(=O)c2ccccc2-c2nc(-c3ccccc3)no2)cc1 | 886

Row | Structure (SMILES) | RP-LC retention time [s]
24 | Cc1cc(-c2ccc(S(=O)(=O)N3CCN(c4ccccn4)CC3)c(C)c2)on1 | 697
25 | O=C(Nc1ccc2c(c1)OCCO2)c1cccc2c1CCN2C(=O)Nc1ccc(F)cc1 | 909
26 | Cc1ccc(-c2nc(CCN(C)C(=O)NCCc3ccccc3)no2)cc1 | 956
27 | O=C(NCC1CCOCC1)Nc1c(F)cccc1F | 628
28 | CCOc1ccc(CCNC(=O)c2cc(S(=O)(=O)N3CCCC3)c(C)n2C)cc1OCC | 951
29 | Cc1ccc(S(=O)(=O)N2CCc3c(c(-c4nnc(-c5ccc(F)cc5)o4)nn3C)C2)cc1 | 971
30 | Cn1c(=O)c(N2CCC(C(=O)NCc3ccco3)CC2)nc2ccccc21 | 774
31 | CCN1C(=O)COc2ccc(-c3noc(-c4ccc(C#N)cc4)n3)cc21 | 1050
32 | O=C(Nc1ccc2c(c1)C(=O)NCC2)Nc1ccccc1C(F)(F)F | 694
33 | COCCCNC(=O)C1CCN(c2nccnc2Sc2cccc(C)c2)CC1 | 886
34 | O=C(Nc1cnc(N2CCN(CCOc3ccc(Cl)cc3)CC2)c(C(=O)O)c1)c1cccs1 | 683
35 | Cc1coc2cc3oc(=O)c(CC(=O)N4CCC(C(N)=O)CC4)c(C)c3cc12 | 654
36 | COc1ccc(C)cc1NC(=O)Nc1c(-c2ccc(F)cc2)nc2ccccn12 | 714
37 | Cc1ccc(NC(=O)Cn2ncc3c(c2=O)N(CC2CC2)C(=O)CS3)cc1Cl | 884
38 | CCCn1cc(CCNC(=O)Cc2ccccc2Cl)c2cccnc21 | 770
39 | O=S(=O)(c1cccc2c(I)cccc12)N1CCCNCC1 | 673
40 | CCc1noc(-c2ccc(-n3ncc(C(=O)N4CCC(C)CC4)c3C)nc2)n1 | 1020
41 | O=C(NC1CCN(C(=O)c2cc(-c3cccs3)[nH]n2)CC1)c1ccc(Cl)cc1 | 778
42 | CCn1c(=O)c2ccccc2n(Cc2nc(-c3cccc(OC)c3)no2)c1=O | 992
43 | O=C(Nc1nnc(-c2ccc(Br)o2)o1)c1ccc(F)cc1F | 740
44 | O=c1c2cc(-c3ccc(Cl)cc3)nn2ccn1Cc1nc(-c2ccccn2)no1 | 894
45 | CC(C)CN(C1CCN(C)CC1)C1CN(C(=O)c2cccs2)C1 | 586
46 | COc1cccc(NC(=O)NCCc2nc3cccnc3n2C2CCCC2)c1 | 696

Row | Structure (SMILES) | RP-LC retention time [s]
47 | Cc1ccc(C(=O)N2CCCn3cc(-c4ccccc4)nc32)cn1 | 605
48 | Cc1cnc(C2CN(C(=O)C(C)C)C2)n1CC1CC1 | 562
49 | CCOC(=O)c1c(C)oc2nc(C)nc(NCc3cccc(Cl)c3)c12 | 1330
50 | Cc1noc(CNC(=O)c2n[nH]c3ccccc23)n1 | 626
51 | Cc1oc(-c2ccc(C(=O)NCC3COCCO3)cc2)nc1CN1CCc2ccccc21 (configuration not stated) | 876
52 | CCn1cc(-c2ccc(C)cc2)cc1C(=O)NCCCN1CCOCC1 | 693
53 | O=S(=O)(Nc1ccc2c(c1)OCO2)c1ccc2ccccc2c1 | 953
54 | CCN1CCc2nc(-c3ccc(F)cc3)n(CC(=O)N3CCCc4ccccc43)c(=O)c2C1 | 625
55 | O=C(CN1C(=O)CCC1=O)Nc1nnc(-c2ccc(Cl)s2)o1 | 642
56 | CCN1CCN(c2ncc3c(n2)CC(c2cc(OC)c(OC)c(OC)c2)CC3=O)CC1 (configuration not stated) | 564
57 | Cc1ccc(C(=O)N2CCc3nc(-c4ccc(Cl)cc4)ncc3C2)cc1F | 1150
58 | CCOc1ccc(NC(=O)C2CC(=O)N(c3n[nH]c4cccc(F)c34)C2)cc1 (configuration not stated) | 744
59 | O=C(NCC1CCN(C(=O)c2ccccc2F)CC1)c1ccc(Cl)s1 | 781
60 | Cc1nnc(-c2cc(C)n(CC(=O)Nc3ccc(Cl)cc3)c2C)o1 | 820
61 | NS(=O)(=O)c1ccc(-n2nc(C(F)(F)F)cc2-c2ccc(Cl)cc2)cc1 | 959
62 | Nc1ncnc2c1ncn2C1CCCC1 | 595
63 | CN(C)c1nc2ncn3c(=O)n(CC(=O)Nc4cc(F)cc(F)c4)nc3c2s1 | 741
64 | CN(C(=O)Cn1cccc1-c1nc(-c2ccccc2)no1)c1ccccc1 | 1100
65 | O=C(NCc1cccc(C(F)(F)F)c1)C1CCCN(c2nccnc2Sc2ccccc2)C1 (configuration not stated) | 1100
66 | CCc1nc(OCC(=O)N(C)c2ccccc2)c2ccccc2n1 | 756
67 | CCC(=O)N1CCN(c2nc3c(s2)CC(C(=O)NCc2cc(F)ccc2F)CC3)CC1 (configuration not stated) | 601

— the METLIN SMRT retention time set (Domingo-Almenara et al. 2019)
